In the supplement of paper PMC10307832:

Experiments:
Assay in all cases: relative viability (nuclei count vs DMSO), 5 days (fraction); higher = more cells survive
AZ3146 + Pictilisib = compound: CN1CCC(CC1)OC2=CC(=C(C=C2)NC3=NC=C4C(=N3)N(C(=O)N4C)C5CCCC5)OC [AZ3146] + CS(=O)(=O)N1CCN(Cc2cc3nc(-c4cccc5[nH]ncc45)nc(N4CCOCC4)c3s2)CC1 [Pictilisib] (partner 1 µM)
How it was run: (§1)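 Relative viability was taken as the ratio of nuclei in treated wells to nuclei in vehicle wells. Lung cancer cell lines in 1536-well plates received compounds by pin tool one day after seeding, either one drug alone or a fixed anchor-drug dose plus five library-drug doses (not always all listed) in √10 steps. Nuclei were counted on 4× images after 5 days of treatment, and values are medians of duplicate plates.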

GSK-J4 + Phenformin = compound: CCOC(=O)CCNc1cc(N2CCc3ccccc3CC2)nc(-c2ccccn2)n1 [GSK-J4] + N=C(N)NC(=N)NCCc1ccccc1 [Phenformin] (partner 250 µM)
How it was run: as §1

AZ3146 + Trametinib = compound: CN1CCC(CC1)OC2=CC(=C(C=C2)NC3=NC=C4C(=N3)N(C(=O)N4C)C5CCCC5)OC [AZ3146] + CC(=O)Nc1cccc(-n2c(=O)n(C3CC3)c(=O)c3c(Nc4ccc(I)cc4F)n(C)c(=O)c(C)c32)c1 [Trametinib] (partner 0.02 µM)
How it was run: as §1

AZ3146 + Vorinostat = compound: CN1CCC(CC1)OC2=CC(=C(C=C2)NC3=NC=C4C(=N3)N(C(=O)N4C)C5CCCC5)OC [AZ3146] + O=C(CCCCCCC(=O)Nc1ccccc1)NO [Vorinostat] (partner 1 µM)
How it was run: as §1

## NCI-H727
AZ3146 + Pictilisib; first compound 0.08 µM
  relative viability: 0.324
AZ3146 + Pictilisib; first compound 0.253 µM
  relative viability: 0.431
AZ3146 + Pictilisib; first compound 0.8 µM
  relative viability: 0.328
AZ3146 + Pictilisib; first compound 2.53 µM
  relative viability: 0.605
AZ3146 + Pictilisib; first compound 8 µM
  relative viability: 0.316
GSK-J4 + Phenformin; first compound 0.5 µM
  relative viability: 0.566
GSK-J4 + Phenformin; first compound 1.581 µM
  relative viability: 0.76
GSK-J4 + Phenformin; first compound 5 µM
  relative viability: 0.791
GSK-J4 + Phenformin; first compound 15.81 µM
  relative viability: 0.589
GSK-J4 + Phenformin; first compound 50 µM
  relative viability: 0.441
AZ3146 + Trametinib; first compound 0.08 µM
  relative viability: 0.359
AZ3146 + Trametinib; first compound 0.253 µM
  relative viability: 0.365
AZ3146 + Trametinib; first compound 0.8 µM
  relative viability: 0.335
AZ3146 + Trametinib; first compound 2.53 µM
  relative viability: 0.417
AZ3146 + Trametinib; first compound 8 µM
  relative viability: 0.364
AZ3146 + Vorinostat; first compound 0.08 µM
  relative viability: 1.01
AZ3146 + Vorinostat; first compound 0.253 µM
  relative viability: 1.22
AZ3146 + Vorinostat; first compound 0.8 µM
  relative viability: 1.03
AZ3146 + Vorinostat; first compound 2.53 µM
  relative viability: 1.17
AZ3146 + Vorinostat; first compound 8 µM
  relative viability: 1.11

## NCI-H838
AZ3146 + Pictilisib; first compound 0.08 µM
  relative viability: 0.557
AZ3146 + Pictilisib; first compound 0.253 µM
  relative viability: 0.467
AZ3146 + Pictilisib; first compound 0.8 µM
  relative viability: 0.39
AZ3146 + Pictilisib; first compound 2.53 µM
  relative viability: 0.387
AZ3146 + Pictilisib; first compound 8 µM
  relative viability: 0.266
GSK-J4 + Phenformin; first compound 0.5 µM
  relative viability: 0.798
GSK-J4 + Phenformin; first compound 1.581 µM
  relative viability: 0.465
GSK-J4 + Phenformin; first compound 15.81 µM
  relative viability: 0.528
GSK-J4 + Phenformin; first compound 50 µM
  relative viability: 0.487
AZ3146 + Trametinib; first compound 0.08 µM
  relative viability: 0.553
AZ3146 + Trametinib; first compound 0.253 µM
  relative viability: 0.467
AZ3146 + Trametinib; first compound 0.8 µM
  relative viability: 0.462
AZ3146 + Trametinib; first compound 2.53 µM
  relative viability: 0.481
AZ3146 + Trametinib; first compound 8 µM
  relative viability: 0.227
AZ3146 + Vorinostat; first compound 0.08 µM
  relative viability: 0.67
AZ3146 + Vorinostat; first compound 0.253 µM
  relative viability: 0.756
AZ3146 + Vorinostat; first compound 0.8 µM
  relative viability: 0.69
AZ3146 + Vorinostat; first compound 2.53 µM
  relative viability: 0.589
AZ3146 + Vorinostat; first compound 8 µM
  relative viability: 0.308

## NCI-H1355
AZ3146 + Pictilisib; first compound 0.08 µM
  relative viability: 0.334
AZ3146 + Pictilisib; first compound 0.253 µM
  relative viability: 0.452
AZ3146 + Pictilisib; first compound 0.8 µM
  relative viability: 0.525
AZ3146 + Pictilisib; first compound 2.53 µM
  relative viability: 0.467
AZ3146 + Pictilisib; first compound 8 µM
  relative viability: 0.512
GSK-J4 + Phenformin; first compound 0.5 µM
  relative viability: 0.447
GSK-J4 + Phenformin; first compound 1.581 µM
  relative viability: 0.39
GSK-J4 + Phenformin; first compound 5 µM
  relative viability: 0.333
GSK-J4 + Phenformin; first compound 15.81 µM
  relative viability: 0.359
GSK-J4 + Phenformin; first compound 50 µM
  relative viability: 0.36
AZ3146 + Trametinib; first compound 0.08 µM
  relative viability: 0.441
AZ3146 + Trametinib; first compound 0.253 µM
  relative viability: 0.429
AZ3146 + Trametinib; first compound 0.8 µM
  relative viability: 0.435
AZ3146 + Trametinib; first compound 2.53 µM
  relative viability: 0.435
AZ3146 + Trametinib; first compound 8 µM
  relative viability: 0.439
AZ3146 + Vorinostat; first compound 0.08 µM
  relative viability: 0.517
AZ3146 + Vorinostat; first compound 0.253 µM
  relative viability: 0.619
AZ3146 + Vorinostat; first compound 0.8 µM
  relative viability: 0.69
AZ3146 + Vorinostat; first compound 2.53 µM
  relative viability: 0.712
AZ3146 + Vorinostat; first compound 8 µM
  relative viability: 0.622

## NCI-H1395
AZ3146 + Pictilisib; first compound 0.08 µM
  relative viability: 0.536
AZ3146 + Pictilisib; first compound 0.253 µM
  relative viability: 0.628
AZ3146 + Pictilisib; first compound 0.8 µM
  relative viability: 0.539
AZ3146 + Pictilisib; first compound 2.53 µM
  relative viability: 0.623
AZ3146 + Pictilisib; first compound 8 µM
  relative viability: 0.726
GSK-J4 + Phenformin; first compound 0.5 µM
  relative viability: 0.418
GSK-J4 + Phenformin; first compound 1.581 µM
  relative viability: 0.459
GSK-J4 + Phenformin; first compound 5 µM
  relative viability: 0.372
GSK-J4 + Phenformin; first compound 15.81 µM
  relative viability: 0.421
GSK-J4 + Phenformin; first compound 50 µM
  relative viability: 0.443
AZ3146 + Trametinib; first compound 0.08 µM
  relative viability: 0.999
AZ3146 + Trametinib; first compound 0.253 µM
  relative viability: 1.08
AZ3146 + Trametinib; first compound 2.53 µM
  relative viability: 1.07
AZ3146 + Trametinib; first compound 8 µM
  relative viability: 1.09
AZ3146 + Vorinostat; first compound 0.08 µM
  relative viability: 0.66
AZ3146 + Vorinostat; first compound 0.253 µM
  relative viability: 0.504
AZ3146 + Vorinostat; first compound 2.53 µM
  relative viability: 0.84
AZ3146 + Vorinostat; first compound 8 µM
  relative viability: 0.615

## NCI-H1437
AZ3146 + Pictilisib; first compound 0.08 µM
  relative viability: 0.432
AZ3146 + Pictilisib; first compound 0.253 µM
  relative viability: 0.376
AZ3146 + Pictilisib; first compound 0.8 µM
  relative viability: 0.45
AZ3146 + Pictilisib; first compound 2.53 µM
  relative viability: 0.393
AZ3146 + Pictilisib; first compound 8 µM
  relative viability: 0.461
GSK-J4 + Phenformin; first compound 0.5 µM
  relative viability: 0.319
GSK-J4 + Phenformin; first compound 1.581 µM
  relative viability: 0.263
GSK-J4 + Phenformin; first compound 5 µM
  relative viability: 0.308
GSK-J4 + Phenformin; first compound 15.81 µM
  relative viability: 0.371
GSK-J4 + Phenformin; first compound 50 µM
  relative viability: 0.25
AZ3146 + Trametinib; first compound 0.08 µM
  relative viability: 0.445
AZ3146 + Trametinib; first compound 0.253 µM
  relative viability: 0.48
AZ3146 + Trametinib; first compound 0.8 µM
  relative viability: 0.511
AZ3146 + Trametinib; first compound 2.53 µM
  relative viability: 0.489
AZ3146 + Trametinib; first compound 8 µM
  relative viability: 0.361
AZ3146 + Vorinostat; first compound 0.08 µM
  relative viability: 0.774
AZ3146 + Vorinostat; first compound 0.253 µM
  relative viability: 0.771
AZ3146 + Vorinostat; first compound 0.8 µM
  relative viability: 0.842
AZ3146 + Vorinostat; first compound 2.53 µM
  relative viability: 0.839
AZ3146 + Vorinostat; first compound 8 µM
  relative viability: 0.538

## NCI-H1650
AZ3146 + Pictilisib; first compound 0.08 µM
  relative viability: 0.52
AZ3146 + Pictilisib; first compound 0.253 µM
  relative viability: 0.671
AZ3146 + Pictilisib; first compound 0.8 µM
  relative viability: 0.53
AZ3146 + Pictilisib; first compound 2.53 µM
  relative viability: 0.535
AZ3146 + Pictilisib; first compound 8 µM
  relative viability: 0.493
GSK-J4 + Phenformin; first compound 0.5 µM
  relative viability: 0.512
GSK-J4 + Phenformin; first compound 1.581 µM
  relative viability: 0.415
GSK-J4 + Phenformin; first compound 5 µM
  relative viability: 0.375
GSK-J4 + Phenformin; first compound 15.81 µM
  relative viability: 0.4
GSK-J4 + Phenformin; first compound 50 µM
  relative viability: 0.408
AZ3146 + Trametinib; first compound 0.08 µM
  relative viability: 0.594
AZ3146 + Trametinib; first compound 0.253 µM
  relative viability: 0.546
AZ3146 + Trametinib; first compound 0.8 µM
  relative viability: 0.602
AZ3146 + Trametinib; first compound 2.53 µM
  relative viability: 0.492
AZ3146 + Trametinib; first compound 8 µM
  relative viability: 0.414
AZ3146 + Vorinostat; first compound 0.08 µM
  relative viability: 0.578
AZ3146 + Vorinostat; first compound 0.253 µM
  relative viability: 0.392
AZ3146 + Vorinostat; first compound 0.8 µM
  relative viability: 0.563
AZ3146 + Vorinostat; first compound 2.53 µM
  relative viability: 0.554
AZ3146 + Vorinostat; first compound 8 µM
  relative viability: 0.475

## NCI-H1651
AZ3146 + Pictilisib; first compound 0.08 µM
  relative viability: 0.556
AZ3146 + Pictilisib; first compound 0.253 µM
  relative viability: 0.668
AZ3146 + Pictilisib; first compound 0.8 µM
  relative viability: 0.576
AZ3146 + Pictilisib; first compound 2.53 µM
  relative viability: 0.475
AZ3146 + Pictilisib; first compound 8 µM
  relative viability: 0.489
GSK-J4 + Phenformin; first compound 0.5 µM
  relative viability: 0.294
GSK-J4 + Phenformin; first compound 1.581 µM
  relative viability: 0.308
GSK-J4 + Phenformin; first compound 5 µM
  relative viability: 0.348
GSK-J4 + Phenformin; first compound 15.81 µM
  relative viability: 0.384
GSK-J4 + Phenformin; first compound 50 µM
  relative viability: 0.392
AZ3146 + Trametinib; first compound 0.08 µM
  relative viability: 0.736
AZ3146 + Trametinib; first compound 0.253 µM
  relative viability: 0.779
AZ3146 + Trametinib; first compound 0.8 µM
  relative viability: 0.833
AZ3146 + Trametinib; first compound 2.53 µM
  relative viability: 0.789
AZ3146 + Trametinib; first compound 8 µM
  relative viability: 0.797
AZ3146 + Vorinostat; first compound 0.08 µM
  relative viability: 0.428
AZ3146 + Vorinostat; first compound 0.253 µM
  relative viability: 0.519
AZ3146 + Vorinostat; first compound 0.8 µM
  relative viability: 0.477
AZ3146 + Vorinostat; first compound 2.53 µM
  relative viability: 0.512
AZ3146 + Vorinostat; first compound 8 µM
  relative viability: 0.568

## NCI-H1666
AZ3146 + Pictilisib; first compound 0.08 µM
  relative viability: 0.307
AZ3146 + Pictilisib; first compound 0.253 µM
  relative viability: 0.507
AZ3146 + Pictilisib; first compound 0.8 µM
  relative viability: 0.485
AZ3146 + Pictilisib; first compound 2.53 µM
  relative viability: 0.582
AZ3146 + Pictilisib; first compound 8 µM
  relative viability: 0.648
GSK-J4 + Phenformin; first compound 0.5 µM
  relative viability: 0.512
GSK-J4 + Phenformin; first compound 1.581 µM
  relative viability: 0.515
GSK-J4 + Phenformin; first compound 5 µM
  relative viability: 0.605
GSK-J4 + Phenformin; first compound 15.81 µM
  relative viability: 0.486
GSK-J4 + Phenformin; first compound 50 µM
  relative viability: 0.464
AZ3146 + Trametinib; first compound 0.08 µM
  relative viability: 0.848
AZ3146 + Trametinib; first compound 0.253 µM
  relative viability: 0.875
AZ3146 + Trametinib; first compound 0.8 µM
  relative viability: 0.851
AZ3146 + Trametinib; first compound 2.53 µM
  relative viability: 0.887
AZ3146 + Trametinib; first compound 8 µM
  relative viability: 0.761
AZ3146 + Vorinostat; first compound 0.08 µM
  relative viability: 0.976
AZ3146 + Vorinostat; first compound 0.253 µM
  relative viability: 1.09
AZ3146 + Vorinostat; first compound 0.8 µM
  relative viability: 1.01
AZ3146 + Vorinostat; first compound 2.53 µM
  relative viability: 1.09
AZ3146 + Vorinostat; first compound 8 µM
  relative viability: 0.994
